Values joined by “and” are separate entries in the source; they are usually repeats but may differ in a detail not shown here. Equal entries are not always repeated. Where two headings read alike, the source gives them in different places.
Experiments:
[1] = biological target: T1, panel of 370 protein kinases (Homo sapiens, UniProt P36888); test: Kinase inhibitor specificity profiling (Reaction Biology Corporation); format: biochemical; settings: 2 h, kinase FLT3; read-out: % Enzyme Activity (relative to DMSO controls)
T1 construct: purchased Reaction Biology Corporation (assay service)
T1 sequence (P36888 27-993): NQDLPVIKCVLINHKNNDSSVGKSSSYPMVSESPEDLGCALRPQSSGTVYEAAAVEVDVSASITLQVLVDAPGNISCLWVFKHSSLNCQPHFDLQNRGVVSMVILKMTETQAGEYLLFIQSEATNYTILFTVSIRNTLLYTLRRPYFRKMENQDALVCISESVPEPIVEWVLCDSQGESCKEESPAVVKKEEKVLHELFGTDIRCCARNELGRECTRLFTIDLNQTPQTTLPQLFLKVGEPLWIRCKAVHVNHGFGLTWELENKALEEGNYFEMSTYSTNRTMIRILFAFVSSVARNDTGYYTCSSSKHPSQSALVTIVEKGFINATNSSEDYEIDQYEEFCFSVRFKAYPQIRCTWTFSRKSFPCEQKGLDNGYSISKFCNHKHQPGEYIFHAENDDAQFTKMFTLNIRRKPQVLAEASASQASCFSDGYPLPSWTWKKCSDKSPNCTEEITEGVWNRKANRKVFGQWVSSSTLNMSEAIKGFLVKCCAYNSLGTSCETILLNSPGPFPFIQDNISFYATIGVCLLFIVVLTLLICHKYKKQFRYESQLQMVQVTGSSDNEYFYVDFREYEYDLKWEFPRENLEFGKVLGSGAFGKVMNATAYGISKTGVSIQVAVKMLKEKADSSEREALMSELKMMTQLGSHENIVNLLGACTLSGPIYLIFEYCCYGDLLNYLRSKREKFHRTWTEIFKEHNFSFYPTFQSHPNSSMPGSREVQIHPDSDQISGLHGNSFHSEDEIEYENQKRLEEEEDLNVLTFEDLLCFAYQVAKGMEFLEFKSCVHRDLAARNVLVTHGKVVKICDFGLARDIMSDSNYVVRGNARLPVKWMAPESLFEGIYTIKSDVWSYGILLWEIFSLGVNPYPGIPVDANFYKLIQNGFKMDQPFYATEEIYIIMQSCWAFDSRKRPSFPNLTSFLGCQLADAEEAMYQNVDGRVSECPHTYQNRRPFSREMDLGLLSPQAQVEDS

[2] = biological target: T2, panel of 370 protein kinases (Homo sapiens, UniProt Q00535); test: as above; format: biochemical; settings: 2 h, read-out: % Enzyme Activity (relative to DMSO controls)
T2 construct: purchased Reaction Biology Corporation (assay service)
T2 sequence (Q00535 whole entry): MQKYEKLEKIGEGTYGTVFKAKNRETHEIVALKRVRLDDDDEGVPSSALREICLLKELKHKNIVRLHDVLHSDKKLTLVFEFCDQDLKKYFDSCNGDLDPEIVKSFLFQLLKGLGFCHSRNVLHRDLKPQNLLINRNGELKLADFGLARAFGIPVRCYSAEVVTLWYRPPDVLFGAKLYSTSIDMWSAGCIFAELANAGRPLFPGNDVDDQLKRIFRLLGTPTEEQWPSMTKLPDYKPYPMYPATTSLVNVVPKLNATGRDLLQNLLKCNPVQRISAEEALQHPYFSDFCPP

[3] = biological target: T3, panel of 370 protein kinases (Homo sapiens, UniProt Q13464); test: as above; format: biochemical; settings: 2 h, kinase ROCK1; read-out: % Enzyme Activity (relative to DMSO controls)
T3 construct: purchased Reaction Biology Corporation (assay service)
T3 sequence (Q13464 whole entry): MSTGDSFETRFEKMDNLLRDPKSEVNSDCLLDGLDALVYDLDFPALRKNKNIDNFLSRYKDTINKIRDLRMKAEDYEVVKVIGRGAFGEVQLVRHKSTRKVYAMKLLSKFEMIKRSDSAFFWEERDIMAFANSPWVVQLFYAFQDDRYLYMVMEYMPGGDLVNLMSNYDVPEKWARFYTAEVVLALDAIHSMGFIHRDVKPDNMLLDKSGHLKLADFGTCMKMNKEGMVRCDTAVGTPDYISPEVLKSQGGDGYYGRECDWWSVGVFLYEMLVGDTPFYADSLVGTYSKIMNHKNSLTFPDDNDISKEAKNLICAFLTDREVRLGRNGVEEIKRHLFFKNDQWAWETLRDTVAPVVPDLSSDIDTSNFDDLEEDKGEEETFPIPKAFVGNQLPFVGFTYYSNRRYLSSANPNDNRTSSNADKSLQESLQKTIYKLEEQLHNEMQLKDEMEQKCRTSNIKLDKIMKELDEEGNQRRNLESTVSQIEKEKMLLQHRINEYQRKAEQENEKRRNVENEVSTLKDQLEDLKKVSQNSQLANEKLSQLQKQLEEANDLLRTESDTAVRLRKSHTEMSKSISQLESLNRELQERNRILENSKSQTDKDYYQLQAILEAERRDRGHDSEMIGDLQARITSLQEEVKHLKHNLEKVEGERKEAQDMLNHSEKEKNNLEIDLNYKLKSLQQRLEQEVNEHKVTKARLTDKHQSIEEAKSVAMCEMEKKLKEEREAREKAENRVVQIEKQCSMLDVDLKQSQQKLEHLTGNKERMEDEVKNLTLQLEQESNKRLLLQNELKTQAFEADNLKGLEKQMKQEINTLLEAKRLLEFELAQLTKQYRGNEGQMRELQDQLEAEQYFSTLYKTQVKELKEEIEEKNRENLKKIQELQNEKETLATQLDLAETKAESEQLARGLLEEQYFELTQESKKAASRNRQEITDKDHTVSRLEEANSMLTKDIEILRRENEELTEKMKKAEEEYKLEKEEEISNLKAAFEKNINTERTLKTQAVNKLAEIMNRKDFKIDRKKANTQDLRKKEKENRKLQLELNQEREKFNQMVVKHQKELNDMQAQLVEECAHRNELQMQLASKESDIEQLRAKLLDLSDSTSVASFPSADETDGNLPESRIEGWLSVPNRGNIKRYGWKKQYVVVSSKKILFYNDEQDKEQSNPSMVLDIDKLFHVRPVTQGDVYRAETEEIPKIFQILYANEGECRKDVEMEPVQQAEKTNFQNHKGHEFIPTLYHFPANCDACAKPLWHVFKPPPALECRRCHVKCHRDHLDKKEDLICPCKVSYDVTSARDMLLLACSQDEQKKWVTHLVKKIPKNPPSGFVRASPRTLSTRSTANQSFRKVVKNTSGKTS

[4] = biological target: T4, panel of 370 protein kinases (Homo sapiens, UniProt Q13882); test: as above; format: biochemical; settings: 2 h, kinase BRK; read-out: % Enzyme Activity (relative to DMSO controls)
T4 construct: purchased Reaction Biology Corporation (assay service)
T4 sequence (Q13882 whole entry): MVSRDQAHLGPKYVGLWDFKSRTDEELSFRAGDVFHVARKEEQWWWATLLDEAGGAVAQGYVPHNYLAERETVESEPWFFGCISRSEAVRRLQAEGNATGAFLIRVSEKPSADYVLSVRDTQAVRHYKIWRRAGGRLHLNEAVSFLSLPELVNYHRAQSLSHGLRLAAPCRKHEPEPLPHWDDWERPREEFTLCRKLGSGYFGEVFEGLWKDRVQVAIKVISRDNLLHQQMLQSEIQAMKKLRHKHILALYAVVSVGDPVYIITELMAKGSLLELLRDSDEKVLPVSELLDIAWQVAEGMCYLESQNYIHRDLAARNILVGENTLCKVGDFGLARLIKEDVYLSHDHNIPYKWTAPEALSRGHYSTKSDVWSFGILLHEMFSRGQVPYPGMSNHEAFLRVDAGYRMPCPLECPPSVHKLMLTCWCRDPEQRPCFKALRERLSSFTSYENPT

[5] = biological target: T5, panel of 370 protein kinases (Homo sapiens, UniProt Q8TD08); test: as above; format: biochemical; settings: 2 h, kinase ERK7/MAPK15; read-out: % Enzyme Activity (relative to DMSO controls)
T5 construct: purchased Reaction Biology Corporation (assay service)
T5 sequence (Q8TD08 whole entry): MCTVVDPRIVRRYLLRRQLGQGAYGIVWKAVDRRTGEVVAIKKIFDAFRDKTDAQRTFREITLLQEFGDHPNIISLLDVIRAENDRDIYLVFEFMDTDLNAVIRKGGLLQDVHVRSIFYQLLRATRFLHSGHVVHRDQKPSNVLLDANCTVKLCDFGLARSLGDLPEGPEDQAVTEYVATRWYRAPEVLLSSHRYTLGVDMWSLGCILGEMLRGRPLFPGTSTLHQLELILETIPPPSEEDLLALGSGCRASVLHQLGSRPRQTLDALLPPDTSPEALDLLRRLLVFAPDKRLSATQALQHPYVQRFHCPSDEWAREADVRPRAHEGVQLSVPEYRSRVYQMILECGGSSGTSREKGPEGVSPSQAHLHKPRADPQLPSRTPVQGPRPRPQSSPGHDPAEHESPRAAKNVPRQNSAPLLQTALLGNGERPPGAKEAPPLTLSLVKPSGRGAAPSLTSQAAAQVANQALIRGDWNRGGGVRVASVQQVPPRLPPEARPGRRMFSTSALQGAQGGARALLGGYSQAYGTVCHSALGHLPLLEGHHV

[6] = biological target: T6, panel of 370 protein kinases (Homo sapiens, UniProt Q92630); test: as above; format: biochemical; settings: 2 h, kinase DYRK2; read-out: % Enzyme Activity (relative to DMSO controls)
T6 construct: purchased Reaction Biology Corporation (assay service)
T6 sequence (Q92630 whole entry): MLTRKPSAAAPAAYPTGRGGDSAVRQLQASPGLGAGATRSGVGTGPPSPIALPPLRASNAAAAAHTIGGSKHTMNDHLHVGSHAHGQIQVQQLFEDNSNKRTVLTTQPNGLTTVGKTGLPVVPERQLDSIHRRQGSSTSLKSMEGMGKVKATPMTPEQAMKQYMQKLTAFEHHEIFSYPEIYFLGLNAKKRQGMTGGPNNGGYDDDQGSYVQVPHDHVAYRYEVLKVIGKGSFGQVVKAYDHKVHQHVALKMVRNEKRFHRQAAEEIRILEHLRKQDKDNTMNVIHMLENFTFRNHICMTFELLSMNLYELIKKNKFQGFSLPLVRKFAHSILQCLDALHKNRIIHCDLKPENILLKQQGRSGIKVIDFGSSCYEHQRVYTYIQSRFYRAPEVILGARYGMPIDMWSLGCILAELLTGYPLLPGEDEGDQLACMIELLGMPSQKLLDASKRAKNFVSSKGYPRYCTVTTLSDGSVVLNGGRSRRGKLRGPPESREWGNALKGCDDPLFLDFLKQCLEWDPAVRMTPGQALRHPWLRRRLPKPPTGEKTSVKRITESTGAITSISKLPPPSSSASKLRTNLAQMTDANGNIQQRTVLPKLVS

[7] = biological target: T7, panel of 370 protein kinases (Homo sapiens, UniProt Q9UEW8); test: as above; format: biochemical; settings: 2 h, kinase STK39/STLK3; read-out: % Enzyme Activity (relative to DMSO controls)
T7 construct: purchased Reaction Biology Corporation (assay service)

DYRK2 protein = biological target: T8, DYRK2 protein (Homo sapiens, UniProt Q92630); test: Microscale thermophoresis binding assay; settings: for Fnorm: triplicates
T8 construct: 6xHis (N, cleaved yes); TEV protease cleavage site (N, cleaved yes); made in house; host or cells: E. coli BL21 (DE3)
T8 sequence (Q92630 72-479 isoform Q92630-2): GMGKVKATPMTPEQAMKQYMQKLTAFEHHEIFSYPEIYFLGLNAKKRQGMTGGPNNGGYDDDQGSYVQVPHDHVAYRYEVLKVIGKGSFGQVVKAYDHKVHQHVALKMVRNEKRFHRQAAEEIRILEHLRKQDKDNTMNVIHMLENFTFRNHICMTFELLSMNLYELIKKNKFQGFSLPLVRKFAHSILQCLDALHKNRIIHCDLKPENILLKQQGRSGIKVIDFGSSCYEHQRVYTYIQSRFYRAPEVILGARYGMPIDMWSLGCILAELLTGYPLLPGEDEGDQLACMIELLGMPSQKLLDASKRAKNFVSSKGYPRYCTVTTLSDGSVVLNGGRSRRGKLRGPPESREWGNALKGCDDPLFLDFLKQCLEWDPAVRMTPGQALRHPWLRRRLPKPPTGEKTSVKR

p-4E-BP1 (Thr37/46) = test: Western blotting analysis of indicated proteins in PCa cells; format: cell-based, human; settings: 48 h treatment
DU145 cells = test: Transcriptome-wide RNA-sequencing; format: cell-based, human; settings: DU145, YK-2-69 3 µM 48 h vs DMSO

Compound: CCN1CCN(C(=O)c2ccc(Nc3ncc(F)c(-c4ccc5nc(N(C)C)sc5c4)n3)nc2)CC1 [YK-2-69]
- remaining activity at 1 µM [1]: 92.7%
- remaining activity at 1 µM ([2]; kinase CDK5/P25): 92.2%
- remaining activity at 1 µM ([2]; kinase CDK5/p35): 90%
- remaining activity at 1 µM [3]: 92.8%
- remaining activity at 1 µM [4]: 97.7%
- remaining activity at 1 µM [5]: 65.5%
- remaining activity at 1 µM [6]: 5.23%
- remaining activity at 1 µM [7]: 39.9%
- Kd (DYRK2 protein): 0.092 µM
- Fnorm (DYRK2 protein; Ligand Concentration 1.52588e-9 M): 967.581 ‰ and 966.546 ‰ and 966.864 ‰
- Fnorm (DYRK2 protein; Ligand Concentration 3.05176e-9 M): 966.58 ‰ and 965.007 ‰ and 967.223 ‰
- Fnorm (DYRK2 protein; Ligand Concentration 6.10352e-9 M): 966.992 ‰ and 966.91 ‰ and 966.101 ‰
- Fnorm (DYRK2 protein; Ligand Concentration 1.2207e-8 M): 967.371 ‰ and 966.328 ‰ and 967.725 ‰
- Fnorm (DYRK2 protein; Ligand Concentration 2.44141e-8 M): 967.449 ‰ and 966.053 ‰ and 966.951 ‰
- Fnorm (DYRK2 protein; Ligand Concentration 4.88281e-8 M): 966.087 ‰ and 966.251 ‰ and 967.971 ‰
- Fnorm (DYRK2 protein; Ligand Concentration 9.76563e-8 M): 964.723 ‰ and 963.783 ‰ and 964.77 ‰
- Fnorm (DYRK2 protein; Ligand Concentration 1.95313e-7 M): 965.362 ‰ and 964.006 ‰ and 962.948 ‰
- Fnorm (DYRK2 protein; Ligand Concentration 3.90625e-7 M): 961.623 ‰ and 962.98 ‰ and 964.971 ‰
- Fnorm (DYRK2 protein; Ligand Concentration 7.8125e-7 M): 963.524 ‰ and 964.437 ‰ and 962.941 ‰
- Fnorm (DYRK2 protein; Ligand Concentration 1.5625e-6 M): 963.3 ‰ and 963.031 ‰ and 962.056 ‰
- Fnorm (DYRK2 protein; Ligand Concentration 3.125e-6 M): 962.439 ‰ and 962.002 ‰ and 962.785 ‰
- Fnorm (DYRK2 protein; Ligand Concentration 6.25e-6 M): 962.791 ‰ and 963.606 ‰ and 963.319 ‰
- Fnorm (DYRK2 protein; Ligand Concentration 1.25e-5 M): 961.109 ‰ and 965.797 ‰ and 962.38 ‰
- Fnorm (DYRK2 protein; Ligand Concentration 2.5e-5 M): 962.063 ‰ and 963.029 ‰ and 959.958 ‰
- Fnorm (DYRK2 protein; Ligand Concentration 5e-5 M): 962.013 ‰ and 961.244 ‰ and 962.047 ‰
- phosphorylation of 4E-BP1 (p-4E-BP1 (Thr37/46)): inhibited the phosphorylation of 4E-BP1 in a dose-dependent manner
- log2(fc) KLF6 (ENSG00000067082) (DU145 cells): -1
- log2(fc) MT-ND6 (ENSG00000198695) (DU145 cells): 1.099
- log2(fc) PLK2 (ENSG00000145632) (DU145 cells): -1.04
- log2(fc) TAGLN (ENSG00000149591) (DU145 cells): -2.064
